Experimental data: patent EP4722219A1 (Gan & Lee Pharmaceuticals Co., Ltd., priority 2023, dated 2024)

Columns and labels:
Type in all cases: cell-based
AR protein = molecular target: T1, AR protein (Homo sapiens, UniProt P10275); experiment: AR protein degradation in VCaP cells (Western blot); settings: 8h
T1 construct: host or cells: VCaP
T1 sequence (P10275 1-920): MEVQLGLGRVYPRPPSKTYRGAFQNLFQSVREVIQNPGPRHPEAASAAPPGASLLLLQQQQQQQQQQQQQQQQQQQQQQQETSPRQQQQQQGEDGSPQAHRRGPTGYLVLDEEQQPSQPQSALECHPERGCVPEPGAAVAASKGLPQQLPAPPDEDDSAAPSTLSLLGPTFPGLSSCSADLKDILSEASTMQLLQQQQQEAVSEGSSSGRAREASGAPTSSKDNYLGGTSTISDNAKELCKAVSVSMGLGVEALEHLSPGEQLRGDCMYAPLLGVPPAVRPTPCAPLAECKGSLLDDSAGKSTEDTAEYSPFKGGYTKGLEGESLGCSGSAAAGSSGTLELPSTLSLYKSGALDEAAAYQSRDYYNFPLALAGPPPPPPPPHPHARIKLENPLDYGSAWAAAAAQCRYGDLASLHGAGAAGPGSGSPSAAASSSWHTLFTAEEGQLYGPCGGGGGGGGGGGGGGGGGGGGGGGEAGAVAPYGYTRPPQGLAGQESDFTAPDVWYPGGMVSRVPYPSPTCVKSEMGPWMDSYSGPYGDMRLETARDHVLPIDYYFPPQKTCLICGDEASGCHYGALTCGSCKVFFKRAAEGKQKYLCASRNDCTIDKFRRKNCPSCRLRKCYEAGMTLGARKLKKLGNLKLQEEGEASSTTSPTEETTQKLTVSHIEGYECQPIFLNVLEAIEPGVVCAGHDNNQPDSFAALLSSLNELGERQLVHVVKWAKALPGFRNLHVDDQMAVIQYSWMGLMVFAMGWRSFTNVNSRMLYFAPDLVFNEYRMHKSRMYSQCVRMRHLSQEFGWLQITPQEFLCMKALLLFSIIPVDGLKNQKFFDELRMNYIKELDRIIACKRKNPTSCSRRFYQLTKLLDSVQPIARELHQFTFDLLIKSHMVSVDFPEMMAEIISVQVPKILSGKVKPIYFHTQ
Procedure, shortened: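 AR-positive VCaP human prostate cancer cells grown in DMEM with 10% FBS were plated in six-well plates at 3×10^5 cells/well and incubated overnight. Compounds were then added at 1 µL/well alongside a solvent control and incubated for 8h. Lysates in RIPA buffer with protease inhibitor were quantified by BCA and run by SDS-PAGE. AR was detected by Western blot, and degradation was calculated from band grayscale normalized to GAPDH.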

LNCaP cells = experiment: Inhibition of LNCaP cell proliferation (WST-8); settings: LNCaP FGC cells, 96 hours
Procedure, shortened: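 WST-8 absorbance at 450 nm measured proliferation after 96 h of compound exposure at 37 °C, 5% CO2. Dosing used nine 5-fold dilutions from a 10 µM top final concentration, applied to cells cultured overnight beforehand.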

VCaP cells = experiment: Inhibition of VCaP cell proliferation (WST-8); settings: 168 hours
Procedure, shortened: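 Proliferation was read on day 9 as WST-8 absorbance at 450 nm after VCaP cells (15,000/well, DMEM/10% FBS, 37°C) were exposed from day 2 to compound at 9 points, 5-fold serial dilution, top final concentration 10 µM.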

| Compound | Degradation rate of AR protein in VCaP cells (AR protein; 0.5 nM) [%] | Degradation rate of AR protein in VCaP cells (AR protein; 5 nM) [%] | IC50 (LNCaP cells; Homo sapiens) [µM] | IC50 (VCaP cells; Homo sapiens) [nM] | IC50 (LNCaP cells) [µM] | IC50 (VCaP cells) [nM] | AR protein degradation rate at fixed concentration (%) at 0.0005 µM (AR protein; 0.5 nM) [%] | AR protein degradation rate at fixed concentration (%) at 0.005 µM (AR protein; 5 nM) [%] |
| --- | --- | --- | --- | --- | --- | --- | --- | --- |
| COc1cc(O[C@H]2C(C)(C)[C@H](NC(=O)c3ccc(N4CCC(C)(CN5CCC6(CC5)COc5c6ccc(C(=O)N[C@H]6CCC(=O)NC6=O)c5F)CC4)cc3)C2(C)C)ccc1C#N [A-P-85, 1'-((1-(4-(((1r,3r)-3-(4-cyano-3-methoxyphenoxy)-2,2,4,4-tetramethylcyclobutyl)carbamoyl)phenyl)-4-methylpiperidin-4-yl)methyl)-N-((S)-2,6-dioxopiperidin-3-yl)-7-fluoro-2H-spiro[benzofuran-3,4'-piperidin]-6-carboxamide] | 18 | 34 | 0.29 | 540 | – | – | – | – |
| (S)-3-((1-(4-(((S)-2-(3-chloro-4-cyanophenyl)-3-methyl-2,8-diazaspiro[4.5]decan-8-yl)phenyl)piperidin-4-yl)methyl)-N-(((S)-2,6-dioxopiperidin-3-yl)-1,2,3,4,4a,5-hexahydrobenzo[b]pyrazi no[1,2-d][1,4]oxazine-8-carboxamide [A-P-57] | -31 | -21 | – | – | 0.67 | 3020 | – | – |
| COc1cc(O[C@H]2C(C)(C)[C@H](NC(=O)c3ccc(N4CCC(CN5CCC6(CCc7cc(F)c(C(=O)N[C@H]8CCC(=O)NC8=O)cc7O6)CC5)CC4)cc3)C2(C)C)ccc1C#N [A-P-39] | -6 | 9 | 12.4 | > 10000 | – | – | – | – |
| COc1cc(O[C@H]2C(C)(C)[C@H](NC(=O)c3ccc(N4CCC(CN5CCN6c7ccc(C(=O)N[C@H]8CCC(=O)NC8=O)cc7OC[C@@H]6C5)CC4)cc3)C2(C)C)ccc1C#N [A-P-67] | 20 | 70 | 7.22 | 170 | – | – | – | – |
| Cn1c(=O)n(C2CCC(=O)NC2=O)c2ccc3c(c21)OCC31CCN(CC2CCN(c3ccc(C(=O)N[C@H]4CC[C@H](Oc5ccc(C#N)c(Cl)c5)CC4)nn3)CC2)CC1 (some centres unmarked) [A-P-24] | – | – | 22.8 | 0.0081 | – | – | 85 | 85 |

Continued, in another order:

| Degradation rate of AR protein in VCaP cells (AR protein; 0.5 nM) [%] | Degradation rate of AR protein in VCaP cells (AR protein; 5 nM) [%] | IC50 (LNCaP cells; Homo sapiens) [µM] | IC50 (VCaP cells; Homo sapiens) [nM] | Compound | IC50 (LNCaP cells) [µM] | IC50 (VCaP cells) [nM] | AR protein degradation rate at fixed concentration (%) at 0.0005 µM (AR protein; 0.5 nM) [%] | AR protein degradation rate at fixed concentration (%) at 0.005 µM (AR protein; 5 nM) [%] |
| --- | --- | --- | --- | --- | --- | --- | --- | --- |
| 84 | 87 | 0.18 | 51 | CC1(C)[C@H](NC(=O)c2ccc(N3CCC(CN4CCC5(CCc6cc(C(=O)N[C@H]7CCC(=O)NC7=O)c(F)cc6O5)CC4)CC3)nc2)C(C)(C)[C@H]1Oc1ccc(C#N)c(Cl)c1 [A-P-50, 1'-((1-(5-(((1R,3R)-3-(3-chloro-4-cyanophenoxy)-2,2,4,4-tetramethylcyclobutyl)carbamoyl)pyridin-2-yl)piperidin-4-yl)methyl)-N-((S)-2,6-dioxopiperidin-3-yl)-7-fluorospiro[chroman-2,4'-piperidin]-6-carboxamide] | – | – | – | – |
| 36 | 71 | 1.48 | 1000 | COc1cc(O[C@H]2C(C)(C)[C@H](NC(=O)c3ccc(N4CCC(CN5CCC6(CCc7cc(C(=O)N[C@H]8CCC(=O)NC8=O)c(F)cc7O6)CC5)CC4)cc3)C2(C)C)ccc1C#N [A-P-30] | – | – | – | – |
| -15 | 45 | 0.6 | 41 | COc1cc(O[C@H]2C(C)(C)[C@H](NC(=O)c3ccc(N4CCC(C)(CN5CCC6(CCc7cc(C(=O)N[C@H]8CCC(=O)NC8=O)c(F)cc7O6)CC5)CC4)nc3)C2(C)C)ccc1C#N [A-P-49, 1'-((1-(5-(((1R,3R)-3-(4-cyano-3-methoxyphenoxy)-2,2,4,4-tetramethylcyclobutyl)carbamoyl)pyridin-2-yl)-4-methylpiperidin-4-yl)methyl)-N-((S)-2,6-dioxopiperidin-3-yl)-7-fluorospiro[chroman-2,4'-piperidin]-6-carboxamide] | – | – | – | – |
